Assay results from US12497378B2, “Tetrahydronaphthalene compounds, pharmaceutical compositions, and uses thereof” (GUANGZHOU HENOVCOM BIOSCIENCE CO., LTD., priority 2020, dated 2025).

Assay: Pharmacokinetics experiment in mouse after intramuscular injection of compound suspensions
Format: in vivo
Details: 9 mg/kg (calculated according to Rotigotine), SD mice, plasma
Procedure: The compounds of the present disclosure were precisely weighed in a proper amount and placed in a 20 ml vial, a blank matrix solution and a zirconia grinding ball were added to grind by vortex. After grinding, the suspension sample was transferred, and the blank matrix solution was used for diluting the suspension sample to final volume, and the suspension sample was packaged into 7 ml vials to prepare about a 20 mg/ml suspension. After the quantitative analysis was determined, the suspension was used for the pharmacokinetics experiment in the mouse.
Suspensions of Embodiments 15, 24, 27, 32 and 54 were prepared according to the method of Embodiment 82 and were taken at a dose of 9 mg/kg(calculated according to Rotigotine), and each of the above-mentioned compound suspensions was intramuscularly administrated for three SD mice, and whole blood samples were taken in 1 h, 4 h, 8 h, 24 h, 48 h, 72 h, 96 h, 120 h, 168 h, 216, 264 h, 312 h, and 360 h after administration, with 0.3 ml/time point. K2EDT/heparin sodium were added to the whole blood samples for anticoagulation, and a BNPP stabilizer was further added, and then each whole blood sample was centrifuged to obtain plasma in 30 min.

blood concentrations of the active compounds (1 h after intramuscular injection of compound suspension): 0.288 ng/mL
blood concentrations of the active compounds (4 h after intramuscular injection of compound suspension): 1.26 ng/mL
blood concentrations of the active compounds (8 h after intramuscular injection of compound suspension): 2.53 ng/mL
blood concentrations of the active compounds (24 h after intramuscular injection of compound suspension): 2.31 ng/mL
blood concentrations of the active compounds (48 h after intramuscular injection of compound suspension): 2.02 ng/mL
blood concentrations of the active compounds (72 h after intramuscular injection of compound suspension): 1.51 ng/mL
blood concentrations of the active compounds (96 h after intramuscular injection of compound suspension): 1.57 ng/mL
blood concentrations of the active compounds (120 h after intramuscular injection of compound suspension): 1.86 ng/mL
blood concentrations of the active compounds (168 h after intramuscular injection of compound suspension): 2.29 ng/mL
blood concentrations of the active compounds (216 h after intramuscular injection of compound suspension): 2.76 ng/mL
blood concentrations of the active compounds (264 h after intramuscular injection of compound suspension): 1.83 ng/mL
blood concentrations of the active compounds (312 h after intramuscular injection of compound suspension): 1.33 ng/mL
blood concentrations of the active compounds (360 h after intramuscular injection of compound suspension): 0.906 ng/mL
Substance: (S)-6-(propyl(2-(thiophen-2-yl)ethyl)amino)-5,6,7,8-tetrahydronaphthalen-1-yl 3-(16-(ethylamino)-16-oxohexadecanamido) propanoate [Embodiment 54]
